Literature values as cited in PubChem BioAssay AID1259409 (Chemical Carcinogenesis Research Information System (CCRIS), 2018).

Test system: rodent chemically induced tumor inhibition, incidence and multiplicity
Assay: CCRIS tumor inhibitor studies

## CC(C)C[C@H]1C(=O)N2CCC[C@H]2[C@]2(O)O[C@](NC(=O)[C@@H]3C=C4c5cccc6[nH]c(Br)c(c56)C[C@H]4N(C)C3)(C(C)C)C(=O)N12
Carcinogen: N-METHYL-N-NITROSOUREA, 684-93-5, Dose [Inhibitor]: 0.4 MG/100 G BW 1/D FOR 129 D BEGINNING AT 60 D OF AGE (STUDY DURATION: 223 D), Route [Inhibitor]: SUBCUTANEOUS, Species: RAT, Strain/Sex: SPRAGUE-DAWLEY/FEMALE, Target Tissue: Type of Lesion: MAMMARY GLAND: NOT SPECIFIED, Dose [Carcinogen]: 2.5 MG/100 G BW ONCE AT 50 D AND ONCE AT 57 D OF AGE, Promoter: NONE USED
  tumour outcome (control, treated, inhibition, significance): 73%, 37%, 49%, p<0.005
Carcinogen: N-METHYL-N-NITROSOUREA, 684-93-5, Dose [Inhibitor]: 0.4 MG/100 G BW 1/D FOR 175 D BEGINNING AT 60 D OF AGE (STUDY DURATION: 185 D), Route [Inhibitor]: SUBCUTANEOUS, Species: RAT, Strain/Sex: SPRAGUE-DAWLEY/FEMALE, Target Tissue: Type of Lesion: MAMMARY GLAND: NOT SPECIFIED, Dose [Carcinogen]: 1.25 MG/100 G BW ONCE AT 50 D AND ONCE AT 57 D OF AGE, Promoter: NONE USED
  tumour outcome (control, treated, inhibition, significance): 27%, 13%, 52%, not significant
Carcinogen: N-METHYL-N-NITROSOUREA, 684-93-5, Dose [Inhibitor]: 0.4 MG/100 G BW 1/D PLUS 328 MG RETINYL ACETATE/KG DIET FOR 175 D BEGINNING AT 60 D OF AGE (STUDY DURATION: 185 D), Route [Inhibitor]: SUBCUTANEOUS, Species: RAT, Strain/Sex: SPRAGUE-DAWLEY/FEMALE, Target Tissue: Type of Lesion: MAMMARY GLAND: NOT SPECIFIED, Dose [Carcinogen]: 1.25 MG/100 G BW ONCE AT 50 D AND ONCE AT 57 D OF AGE, Promoter: NONE USED
  tumour outcome (control, treated, inhibition, significance): 27%, 0%, 100%, p<0.01
Carcinogen: N-METHYL-N-NITROSOUREA, 684-93-5, Dose [Inhibitor]: 0.4 MG/100 G BW 1/D PLUS 328 MG RETINYL ACETATE/KG OF DIET, FOR 129 D BEGINNING AT 60 D OF AGE (STUDY DURATION: 223 D), Route [Inhibitor]: SUBCUTANEOUS, Species: RAT, Strain/Sex: SPRAGUE-DAWLEY/FEMALE, Target Tissue: Type of Lesion: MAMMARY GLAND: NOT SPECIFIED, Dose [Carcinogen]: 2.5 MG/100 G BW ONCE AT 50 D AND ONCE AT 57 D OF AGE, Promoter: NONE USED
  tumour outcome (control, treated, inhibition, significance): 73%, 7%, 90%, p<0.005
Carcinogen: N-METHYL-N-NITROSOUREA, 684-93-5, Dose [Inhibitor]: 400 UG/100 G BW TOGETHER WITH 25 UG/100 G BW TAMOXIFEN 1/D FOR 6 MO BEGINNING 3 D POST CARCINOGEN DOSE, DOSAGE OF BOTH R, Route [Inhibitor]: SUBCUTANEOUS, Species: RAT, Strain/Sex: SPRAGUE-DAWLEY/FEMALE, Target Tissue: Type of Lesion: MAMMARY GLAND: CARCINOMA, Dose [Carcinogen]: 2.5 MG/100 G BW ONCE AT 50 D AND ONCE AT 57 D OF AGE, Promoter: NONE USED
  outcome: 88%, 3%, 97%, p<0.001 (at 4 mo post carcinogen dose); 88%, 28%, 68%, not calcula
Carcinogen: N-METHYL-N-NITROSOUREA, 684-93-5, Dose [Inhibitor]: 400 UG/100 G BW TOGETHER WITH 25 UG/100 G BW TAMOXIFEN 1/D FOR 6 MO PLUS 328 MG RETINYL ACETATE/KG DIET FOR 6 MO, DOSAGE, Route [Inhibitor]: SUBCUTANEOUS, Species: RAT, Strain/Sex: SPRAGUE-DAWLEY/FEMALE, Target Tissue: Type of Lesion: MAMMARY GLAND: CARCINOMA, Dose [Carcinogen]: 2.5 MG/100 G BW ONCE AT 50 D AND ONCE AT 57 D OF AGE, Promoter: NONE USED
  outcome: 88%, 0%, 100%, p<0.001 (at 4 mo post carcinogen dose); 88%, 7%, 92%, not calcula
Carcinogen: N-ethyl-N'-nitro-N-nitrosoguanidine (ENNG), 4245-77-6, Dose [Inhibitor]: 1 mg/kg bw 5 x a wk up to 14.5 mo of age (half a mo before termination of experiment), Route [Inhibitor]: Subcutaneous, Species: Rat, Strain/Sex: Crj:Donryu/female, Target Tissue: Type of Lesion: Uterus: Adenocarcinoma, Dose [Carcinogen]: 20 mg/kg, Promoter: None
  outcome: 9/25 (36%), 3/23 (13%), p<0.05
Carcinogen: NONE USED, Dose [Inhibitor]: 0.1 MG IN SALINE 1/D FOR 12 MO BEGINNING AT 2 MO OF AGE (STUDY DURATION: 22 MO), Route [Inhibitor]: SUBCUTANEOUS, Species: MOUSE, Strain/Sex: C3H/FEMALE, Target Tissue: Type of Lesion: MAMMARY GLAND: CARCINOMA, Promoter: NONE USED
  tumour outcome (control, treated, inhibition, significance): 24/90 (27%), 1/90 (1%), 96%, p<0.001
Carcinogen: NONE USED, Dose [Inhibitor]: 0.1 MG IN SALINE 1/D FOR 30 D ON ALTERNATE MO BEGINNING AT 7 MO OF AGE FOR 12 MO (STUDY DURATION: 12 MO), Route [Inhibitor]: SUBCUTANEOUS, Species: MOUSE, Strain/Sex: C3H/FEMALE, Target Tissue: Type of Lesion: MAMMARY GLAND: CARCINOMA, Promoter: NONE USED
  tumour outcome (control, treated, inhibition, significance): 36/70 (51%), 9/70 (13%), 74%, p<0.01
Carcinogen: NONE USED, Dose [Inhibitor]: 0.1 MG/D BEGINNING AT 1 MO OF AGE FOR 16 MO (STUDY DURATION: 16 MO), Route [Inhibitor]: SUBCUTANEOUS, Species: MOUSE, Strain/Sex: C3H/FEMALE, Target Tissue: Type of Lesion: MAMMARY GLAND: TUMOR, Promoter: NONE USED
  tumour outcome (control, treated, inhibition, significance): 24/29 (83%), 13/28 (46%), 44%, p<0.01
Carcinogen: NONE USED, Dose [Inhibitor]: 0.5 MG IN 0.05 ML OLIVE OIL 1/D FOR 7 WK BEGINNING AT 4 WK OF AGE (STUDY DURATION: 26 MO), Route [Inhibitor]: SUBCUTANEOUS, Species: RAT, Strain/Sex: SPRAGUE-DAWLEY/FEMALE, Target Tissue: Type of Lesion: MAMMARY GLAND: TUMOR, Promoter: NONE USED
  tumour outcome (control, treated, inhibition, significance): 70%, 32%, 54%, p<0.05
Carcinogen: NONE USED, Dose [Inhibitor]: 0.5 MG IN 0.05 ML OLIVE OIL 1/D FOR 7 WK BEGINNING AT 11 WK OF AGE (STUDY DURATION: 26 MO), Route [Inhibitor]: SUBCUTANEOUS, Species: RAT, Strain/Sex: SPRAGUE-DAWLEY/FEMALE, Target Tissue: Type of Lesion: MAMMARY GLAND: TUMORS, Promoter: NONE USED
  tumour outcome (control, treated, inhibition, significance): 70%, 55%, 21%, p<0.05
Carcinogen: NONE USED, Dose [Inhibitor]: 8.5 MG/KG 1/D FOR 4 D TO PREGNANT MICE ON D 12 TO D 15 OF PREGNANCY, FEMALE OFFSPRING OBSERVED FOR 10 MO (STUDY DURATION, Route [Inhibitor]: SUBCUTANEOUS, Species: MOUSE, Strain/Sex: SHN/FEMALE, Target Tissue: Type of Lesion: MAMMARY GLAND: NOT SPECIFIED, Promoter: NONE USED
  tumour outcome (control, treated, inhibition, significance): 33/38 (87%), 10/13 (77%), 11%, not calculated
Carcinogen: NONE USED, Dose [Inhibitor]: 40 MG/KG 1/D FOR FIRST 5 D OF POSTNATAL LIFE, OBSERVED FOR 10 MO (STUDY DURATION: 10 MO), Route [Inhibitor]: SUBCUTANEOUS, Species: MOUSE, Strain/Sex: SHN/FEMALE, Target Tissue: Type of Lesion: MAMMARY GLAND: NOT SPECIFIED, Promoter: NONE USED
  tumour outcome (control, treated, inhibition, significance): 33/38 (87%), 17/17 (100%), -15%, not significant
Carcinogen: NONE USED, Dose [Inhibitor]: 100 UG OF 1 MG/ML DISSOLVED IN A MINIMAL AMOUNT OF ETHANOL AND SUSPENDED IN 0.9% NACL 1/D FROM D 7 TO 21 OF PREGNANCY (S, Route [Inhibitor]: SUBCUTANEOUS, Species: MOUSE, Strain/Sex: GR/FEMALE, Target Tissue: Type of Lesion: MAMMARY GLAND: TUMOR, Promoter: NONE USED
  tumour outcome (control, treated, inhibition, significance): 39/44 (89%), 24/43 (56%), 37%, p<0.05
